In patent publication EP0403242A1, “New L-683,590 microbial transformation product” (Merck & Co., Inc., priority 1989, dated 1990):
Values joined by “and” are separate entries in the source; they are usually repeats but may differ in a detail not shown here. Equal values may be shown once. Read-outs that look alike come from different tables or passages of the source. One block for each molecule: values may come before it.

Legend:
mouse T lymphocytes = test: T-cell proliferation assay (ionomycin plus PMA induced T-cell stimulation, tritiated thymidine uptake); format: cell-based, C57B1/6 mice
Protocol: The principle of this assay is to measure the proliferation of mouse T lymphocytes stimulated with the combination of ionomycin plus PMA. […] Cells were pelleted by centrifugation at 1500 rpm for 8 minutes. Contaminating red cells were removed by treating the pellet with ammonium chloride lysing buffer (GIBCO) for 2 minutes at 4°C. Cold medium was added and cells were again centrifuged at 1500 rpm for 8 minutes. T lymphocytes were then isolated by separation of the cell suspension on nylon wool columns as follows: Nylon wool columns were prepared by packing approximately 4 grams of washed and dried nylon wool into 20 ml plastic syringes. The columns were sterilized by autoclaving at 250°F for 30 minutes. Nylon wool columns were wetted with warm (37°C) culture medium and rinsed with the same medium. Washed spleen cells resuspended in warm medium were slowly applied to the nylon wool. The columns were then incubated in an upright position at 37°C for 1 hour. Non-adherent T lymphocytes were eluted from the columns with warm culture medium and the cell suspensions were spun as above. […] The cell suspension was immediately distributed into 96 well flat-bottom microculture plates (Costar) at 200 μl/well. […] The proliferation of T lymphocytes was assessed by measurement of tritiated thymidine incorporation. After 44 hours of culturing, the cells were pulse-labelled with 2 μCi/well of tritiated thymidine (NEN, Cambridge, MA). After another 4 hours of incubation, cultures were harvested on glass fiber filters using a multiple sample harvester. Radioactivity of filter discs corresponding to individual wells was measured by standard liquid scintillation counting methods (Betacounter). […]

[1] = Physical characteristics of the fermentation product; format: physicochemical; settings: qualitative, solvent methanol
Description: White amorphous powder • 2. […] Molecular weight of 763, as determined by electron impact mass spectroscopy and is consistent with the assigned molecular structure in Figure 1.

Compound: C=CC[C@@H]1/C=C(\C)C[C@H](C)C[C@H](OC)[C@H]2O[C@@](O)(C(=O)C(=O)N3CCCC[C@H]3C(=O)O[C@H](/C(C)=C/[C@@H]3CC[C@@H](O)[C@H](OC)C3)[C@H](C)[C@@H](O)CC1=O)[C@H](C)C[C@@H]2OC [L-679,934, reference compound]
inhibition at 0.001 µg/mL (mouse T lymphocytes; Mus musculus, T-lymphocyte, Table 1, L-679,934 1 ng/ml alone (0 ng/ml L-686,292)): 99%
inhibition at 0.001 µg/mL (mouse T lymphocytes; Mus musculus, T-lymphocyte, Table 2, L-679,934 (1 ng/ml) alone (0 ng/ml L-686,292)): 97.1%
IC50 (mouse T lymphocytes; Mus musculus, T-lymphocyte, read-out: IC₅₀ for L-679,934-mediated inhibition): 0.00032 µg/mL and 0.4 nM

Solubility [1]: Solubility in methanol
Compound: CC[C@@H]1/C=C(\C)C[C@H](C)C[C@H](O)[C@H]2O[C@@](O)(C(=O)C(=O)N3CCCC[C@H]3C(=O)O[C@H](/C(C)=C/[C@@H]3CC[C@@H](O)[C@H](O)C3)[C@H](C)[C@@H](O)CC1=O)[C@H](C)C[C@@H]2OC [L-686,292]
inhibition at 0.031 µg/mL (mouse T lymphocytes; Mus musculus, T-lymphocyte, 48 h, Table 1, L-686,292 only, 31 ng/ml, harvest at 48 hours): 0%
inhibition at 0.063 µg/mL (mouse T lymphocytes; Mus musculus, T-lymphocyte, 48 h, Table 1, L-686,292 only, 63 ng/ml, harvest at 48 hours): 0%
inhibition at 0.125 µg/mL (mouse T lymphocytes; Mus musculus, T-lymphocyte, 48 h, Table 1, L-686,292 only, 125 ng/ml, harvest at 48 hours): 0%
inhibition at 0.25 µg/mL (mouse T lymphocytes; Mus musculus, T-lymphocyte, 48 h, Table 1, L-686,292 only, 250 ng/ml, harvest at 48 hours): 0%
inhibition at 0.5 µg/mL (mouse T lymphocytes; Mus musculus, T-lymphocyte, 48 h, Table 1, L-686,292 only, 500 ng/ml, harvest at 48 hours): 0%
inhibition at 1 µg/mL (mouse T lymphocytes; Mus musculus, T-lymphocyte, 48 h, Table 1, L-686,292 only, 1000 ng/ml, harvest at 48 hours): 0%
inhibition at 0.001 µg/mL (mouse T lymphocytes; Mus musculus, T-lymphocyte, Table 1, L-686,292 31 ng/ml & L-679,934 (1 ng/ml), read-out: % Inhibition): 99%
inhibition at 0.001 µg/mL (mouse T lymphocytes; Mus musculus, T-lymphocyte, Table 1, L-686,292 63 ng/ml & L-679,934 (1 ng/ml), read-out: % Inhibition): 99%
inhibition at 0.001 µg/mL (mouse T lymphocytes; Mus musculus, T-lymphocyte, Table 1, L-686,292 125 ng/ml & L-679,934 (1 ng/ml), read-out: % Inhibition): 96%
inhibition at 0.001 µg/mL (mouse T lymphocytes; Mus musculus, T-lymphocyte, Table 1, L-686,292 250 ng/ml & L-679,934 (1 ng/ml), read-out: % Inhibition): 65%
inhibition at 0.001 µg/mL (mouse T lymphocytes; Mus musculus, T-lymphocyte, Table 1, L-686,292 500 ng/ml & L-679,934 (1 ng/ml), read-out: % Inhibition): 3%
inhibition at 0.001 µg/mL (mouse T lymphocytes; Mus musculus, T-lymphocyte, Table 1, L-686,292 1000 ng/ml & L-679,934 (1 ng/ml), read-out: % Inhibition): 0%
inhibition at 0.001 µg/mL (mouse T lymphocytes; Mus musculus, T-lymphocyte, Table 2, L-686,292 31.3 ng/ml + inhibitor L-679,934 (1 ng/ml), read-out: % Inhibition): 93.4%
inhibition at 0.001 µg/mL (mouse T lymphocytes; Mus musculus, T-lymphocyte, Table 2, L-686,292 62.5 ng/ml + inhibitor L-679,934 (1 ng/ml), read-out: % Inhibition): 65.7%
inhibition at 0.001 µg/mL (mouse T lymphocytes; Mus musculus, T-lymphocyte, Table 2, L-686,292 125 ng/ml + inhibitor L-679,934 (1 ng/ml), read-out: % Inhibition): 0%
inhibition at 0.001 µg/mL (mouse T lymphocytes; Mus musculus, T-lymphocyte, Table 2, L-686,292 1000 ng/ml + inhibitor L-679,934 (1 ng/ml), read-out: % Inhibition): 4.7%
IC50 (mouse T lymphocytes; Mus musculus, T-lymphocyte, reversal of inhibition by L-679,934 (1 ng/ml), read-out: IC₅₀ of reversal): 0.25 µg/mL and 328 nM
IC50 (mouse T lymphocytes; Mus musculus, T-lymphocyte, reversal of inhibition by L-679,934, 'generally in the range', read-out: IC₅₀ of reversal, general range): 100 to 400 nM
L-679,934 antagonist activity (mouse T lymphocytes; qualitative statement): exhibits reversal of L-679,934 mediated inhibition of T-cell activation
